Test results: US20130274235A1, “TREATMENT OF MOTOR NEURON DISEASE” (THE GENERAL HOSPITAL CORPORATION, priority 2010, published 2013)
Several values for one entry are separate records, joined by “and”; a condition that tells them apart may be missing. Equal values may be shown once. Where a name gives a salt, the structure may show the parent alone. Where a SMILES comes first, the peptide text is derived from it.

Experiments:
IGF-II mRNA = assay: IGF-II expression assay, qPCR detection, in primary spinal cord cultures; assay type: cell-based, mice; conditions: for induction of IGF-II expression (in words): antihypertensive agents, FIGS. 5 and 6; for IGF-II inducing activity (in words) / induction of IGF-II expression (fold induction): NSAID series, FIGS. 3 and 4
Protocol: Quantitative PCR utilizing SYBR green I (Molecular Probes, Eugene, Oreg.) or specific Taqman probes was used to confirm differential gene expression. RNA extracted from 100-200 LCMed motor neurons were reverse transcribed using Superscript III (Invitrogen). 2 μl of diluted cDNA was amplified (DNA Engine Opticon real-time PCR machine, Bio-Rad), in […] reactions containing 900 nM primer and 250 nM probe in Taqman Universal Master Mix (Applied Biosystems). Reactions were run in duplicate and each gene analyzed in at least three different animals. Reaction parameters were as follows: 50° C. for 2 min, 95° C. for 10 min, and 40 cycles of 95° C. for 15 s and 60° C. for 1 min. Controls lacking template and/or Superscript were included. The absolute copy number for each gene was quantified using a standard curve from human GAPDH plasmid and amplified products were normalized against rat GAPDH expression. Primers and probes (Integrated DNA technologies) were as follows: rat GAPDH: Forward primer: […]
Two libraries of FDA-approved drugs (NINDS and Harvard LDDN) were screened for their ability to up-regulate IGF-II expression. Candidate compounds were screened in an IGF-II expression assay using a qPCR detection methodology in primary spinal cord cultures or using a luciferase reporter assay. In the initial screening, therapeutic candidates were identified as those that increased IGF-II expression by at least 2-fold. […]

IGF-II protein = IGF-II protein expression in primary spinal cord cultures, quantitated by ELISA; assay type: cell-based, mice
Description: Further results of the library screening identified the following therapeutic agents as having a significant inducing effect on IGF-II expression in primary spinal cord cultures and are useful for treating motor neuron disease. Protein expression was quantitated by ELISA.

COc1ccccc1OCCNCC(O)COc1cccc2[nH]c3ccccc3c12 (centres unmarked) [carvedilol]
induction of IGF-II expression (in words) (IGF-II mRNA): most active

COc1cc2c(cc1OC)C(=O)C(CC1CCN(Cc3ccccc3)CC1)C2 (centres unmarked) [donepezil HCl]
induction of IGF-II expression (in words) (IGF-II mRNA): most active

CCCCNc1cc(C(=O)O)cc(S(N)(=O)=O)c1Oc1ccccc1 [bumetanide]
induction of IGF-II expression (in words) (IGF-II mRNA): most active

COC(=O)C1=C(C)NC(C)=C(C(=O)OC)C1c1ccccc1[N+](=O)[O-] [Nifedipine]
Fold Increase in IGF-II mRNA Expression (IGF-II mRNA): 6.6 ± 6.2 fold

COC(=O)[C@H](Cc1ccccc1)NC(=O)[C@@H](N)CC(=O)O [Aspartame] (H-Asp-Phe-OMe)
Fold Increase in IGF-II mRNA Expression (IGF-II mRNA): 5.5 ± 0.7 fold
Fold Increase in IGF-II Protein Expression (IGF-II protein): 1.2 fold
IGF-II Protein Expression (pg/ml in media) (IGF-II protein): (175 ± 1.7) pg/ml

NNc1nncc2ccccc12 [Hydralazine HCl]
Fold Increase in IGF-II mRNA Expression (IGF-II mRNA): 6.3 fold
induction of IGF-II expression (in words) (IGF-II mRNA): most active

Cc1onc(-c2c(Cl)cccc2Cl)c1C(=O)N[C@@H]1C(=O)N2[C@@H]1SC(C)(C)[C@@H]2C(=O)O [Dicloxacillin sodium]
Fold Increase in IGF-II mRNA Expression (IGF-II mRNA): 3.2 fold

terbutaline hemisulfate
induction of IGF-II expression (in words) (IGF-II mRNA): most active

O=C(O)COCCN1CCN(C(c2ccccc2)c2ccc(Cl)cc2)CC1 (centres unmarked) [Cetirizine HCl]
Fold Increase in IGF-II mRNA Expression (IGF-II mRNA): 5.8 fold

CC(C)NCC(O)COc1ccc(CC(N)=O)cc1 (centres unmarked) [atenolol]
induction of IGF-II expression (in words) (IGF-II mRNA): most active

COc1ccc(-c2cc(C(F)F)nn2-c2ccc(S(N)(=O)=O)cc2)cc1F [deracoxib]
IGF-II inducing activity (in words) (IGF-II mRNA): strong IGF-II inducing activity

Clc1ccc2c(c1)C(N1CCNCC1)=Nc1ccccc1O2 [Amoxapine]
Fold Increase in IGF-II mRNA Expression (IGF-II mRNA): 4.1 ± 2.3 fold

COCCCC/C(=N\OCCN)c1ccc(C(F)(F)F)cc1 [Fluvoxamine maleate]
Fold Increase in IGF-II mRNA Expression (IGF-II mRNA): 4.8 fold

COc1ccccc1OCC(O)CO (centres unmarked) [Guaifenesin]
Fold Increase in IGF-II mRNA Expression (IGF-II mRNA): 2.9 fold

O=C(O)Cc1ccccc1Nc1c(Cl)cccc1Cl [Diclofenac]
Fold Increase in IGF-II mRNA Expression (IGF-II mRNA): 4.0 ± 1.1 fold
induction of IGF-II expression (fold induction) (IGF-II mRNA): 3.4±1.3 fold
Fold Increase in IGF-II Protein Expression (IGF-II protein): 1.1 fold
IGF-II Protein Expression (pg/ml in media) (IGF-II protein): (112 ± 29) pg/ml

Clc1cccc(Cl)c1N=C1NCCN1 [clonidine HCl]
induction of IGF-II expression (in words) (IGF-II mRNA): most active

Cc1cc2c(s1)Nc1ccccc1N=C2N1CCN(C)CC1 [Olanzapine]
Fold Increase in IGF-II mRNA Expression (IGF-II mRNA): 4.0 fold

COc1ccc2[nH]c([S+]([O-])Cc3ncc(C)c(OC)c3C)nc2c1 (centres unmarked) [Omeprazole]
Fold Increase in IGF-II mRNA Expression (IGF-II mRNA): 5.9 fold

CC(C)(C)NC[C@H](O)COc1nsnc1N1CCOCC1 [timolol maleate]
induction of IGF-II expression (in words) (IGF-II mRNA): most active

NC(=O)C[S+]([O-])C(c1ccccc1)c1ccccc1 (centres unmarked) [Modafinil]
Fold Increase in IGF-II mRNA Expression (IGF-II mRNA): 4.4 ± 4.0 fold
Fold Increase in IGF-II Protein Expression (IGF-II protein): 1.4 fold
IGF-II Protein Expression (pg/ml in media) (IGF-II protein): (213 ± 22) pg/ml

COc1ccc(Cl)cc1C(=O)NCCc1ccc(S(=O)(=O)NC(=O)NC2CCCCC2)cc1 [Glyburide]
Fold Increase in IGF-II mRNA Expression (IGF-II mRNA): 4.9 fold

Cc1ccc(-c2nc3ccc(C)cn3c2CC(=O)N(C)C)cc1 [Zolpidem]
Fold Increase in IGF-II mRNA Expression (IGF-II mRNA): 6.1 fold

CC(COc1ccccc1)N(CCCl)Cc1ccccc1 (centres unmarked) [phenoxybenzamine HCl]
induction of IGF-II expression (in words) (IGF-II mRNA): most active

CC(C(=O)O)c1ccc2c(c1)[nH]c1ccc(Cl)cc12 (centres unmarked) [Carboprofen]
Fold Increase in IGF-II mRNA Expression (IGF-II mRNA): 2.4 fold
IGF-II inducing activity (in words) (IGF-II mRNA): strong IGF-II inducing activity

CNCCC(Oc1ccc(C(F)(F)F)cc1)c1ccccc1 (centres unmarked) [Fluoxetine]
Fold Increase in IGF-II mRNA Expression (IGF-II mRNA): 4.3 ± 2.3 fold

CC(C)[C@H](N)C(=O)OCCOCn1cnc2c(=O)[nH]c(N)nc21 [Valacyclovir HCl]
Fold Increase in IGF-II mRNA Expression (IGF-II mRNA): 4.2 ± 1.8 fold
Fold Increase in IGF-II Protein Expression (IGF-II protein): 1.5 fold
IGF-II Protein Expression (pg/ml in media) (IGF-II protein): (232 ± 4) pg/ml

CN(C)CCCC1(c2ccc(F)cc2)OCc2cc(C#N)ccc21 (centres unmarked) [Citalopram]
Fold Increase in IGF-II mRNA Expression (IGF-II mRNA): 3.4 fold

N[C@@H](Cc1ccc(O)c(O)c1)C(=O)O [Levodopa]
Fold Increase in IGF-II mRNA Expression (IGF-II mRNA): 3.5 fold

COCCCOc1cc(C[C@@H](C[C@H](N)[C@@H](O)C[C@H](C(=O)NCC(C)(C)C(N)=O)C(C)C)C(C)C)ccc1OC [aliskiren hemifumarate]
induction of IGF-II expression (in words) (IGF-II mRNA): most active

CCOC(=O)[C@@](C)(N)Cc1ccc(O)c(O)c1 [Methyldopate HCl]
Fold Increase in IGF-II mRNA Expression (IGF-II mRNA): 4.3 fold
induction of IGF-II expression (in words) (IGF-II mRNA): most active

C[N+](C)(C)C[C@H](O)CC(=O)[O-] [Levocarnitine]
Fold Increase in IGF-II mRNA Expression (IGF-II mRNA): 5.7 ± 1.1 fold
Fold Increase in IGF-II Protein Expression (IGF-II protein): 1.7 fold
IGF-II Protein Expression (pg/ml in media) (IGF-II protein): (258 ± 7) pg/ml

Nc1c2c(nc3ccccc13)CCCC2 [Tacrine HCl]
Fold Increase in IGF-II mRNA Expression (IGF-II mRNA): 3.7 fold

CC(=O)OCC(=O)[C@@]1(O)[C@H](C)C[C@H]2[C@@H]3CCC4=CC(=O)C=C[C@]4(C)[C@@]3(F)[C@@H](O)C[C@@]21C [Dexamethasone acetate]
Fold Increase in IGF-II mRNA Expression (IGF-II mRNA): 3.8 fold

CN(C)CCCN1c2ccccc2Sc2ccc(Cl)cc21 [Chlorpromazine]
Fold Increase in IGF-II mRNA Expression (IGF-II mRNA): 3.4 fold

Nc1nc(/C(=C/CC(=O)O)C(=O)N[C@@H]2C(=O)N3C(C(=O)O)=CCS[C@H]23)cs1 [Ceftibuten]
Fold Increase in IGF-II mRNA Expression (IGF-II mRNA): 3.9 ± 2.7 fold

O=C(O)c1cc(-c2ccc(F)cc2F)ccc1O [diflunisal]
IGF-II inducing activity (in words) (IGF-II mRNA): strong IGF-II inducing activity

CN1CCCC(n2nc(Cc3ccc(Cl)cc3)c3ccccc3c2=O)CC1 (centres unmarked) [Azelastine HCl]
Fold Increase in IGF-II mRNA Expression (IGF-II mRNA): 3.2 fold

Cc1ncc(C[n+]2csc(CCO[P@](=O)(O)OP(=O)(O)O)c2C)c(N)n1 [Thiamine pyrophosphate]
Fold Increase in IGF-II mRNA Expression (IGF-II mRNA): 4.1 ± 2.1 fold
Fold Increase in IGF-II Protein Expression (IGF-II protein): 0.9 fold
IGF-II Protein Expression (pg/ml in media) (IGF-II protein): (118 ± 42) pg/ml

CCCN(CCC)CCc1cccc2c1CC(=O)N2 [Ropinirole]
Fold Increase in IGF-II mRNA Expression (IGF-II mRNA): 4.5 ± 3.0 fold

CCCc1nc(C(C)(C)O)c(C(=O)OCc2oc(=O)oc2C)n1Cc1ccc(-c2ccccc2-c2nnn[nH]2)cc1 [Olmesartan medoxomil]
Fold Increase in IGF-II mRNA Expression (IGF-II mRNA): 5.2 fold
induction of IGF-II expression (in words) (IGF-II mRNA): most active

CN1CCC[C@@H]1Cc1c[nH]c2ccc(CCS(=O)(=O)c3ccccc3)cc12 [Eletriptan HBr]
Fold Increase in IGF-II mRNA Expression (IGF-II mRNA): 4.3 fold

Cc1onc(-c2ccccc2)c1-c1ccc(S(N)(=O)=O)cc1 [valdecoxib]
IGF-II inducing activity (in words) (IGF-II mRNA): strong IGF-II inducing activity

NC(=O)c1cccnc1 [Niacinamide]
Fold Increase in IGF-II mRNA Expression (IGF-II mRNA): 5.0 ± 3.6 fold
Fold Increase in IGF-II Protein Expression (IGF-II protein): 1.1 fold
IGF-II Protein Expression (pg/ml in media) (IGF-II protein): (151 ± 45) pg/ml

CN1CCCC1c1cccnc1.O=C(O)C(O)C(O)C(=O)O.O=C(O)C(O)C(O)C(=O)O (centres unmarked) [Nicotine ditartrate]
Fold Increase in IGF-II mRNA Expression (IGF-II mRNA): 4.8 ± 0.3 fold
Fold Increase in IGF-II Protein Expression (IGF-II protein): 1.5 fold
IGF-II Protein Expression (pg/ml in media) (IGF-II protein): (205 ± 26) pg/ml

CC(C(=O)O)c1ccc(-c2ccccc2)c(F)c1 (centres unmarked) [Flurbiprofen]
Fold Increase in IGF-II mRNA Expression (IGF-II mRNA): 2.5 fold and 2.5 ± 0.5 fold
induction of IGF-II expression (fold induction) (IGF-II mRNA): 2.5±0.5 fold
Fold Increase in IGF-II Protein Expression (IGF-II protein): 1.2 fold
IGF-II Protein Expression (pg/ml in media) (IGF-II protein): (121 ± 27) pg/ml

Cc1cc2nc3c(=O)[nH]c(=O)nc-3n(C[C@H](O)[C@H](O)[C@H](O)CO)c2cc1C [Riboflavin]
Fold Increase in IGF-II mRNA Expression (IGF-II mRNA): 4.1 ± 1.9 fold
Fold Increase in IGF-II Protein Expression (IGF-II protein): 1.5 fold
IGF-II Protein Expression (pg/ml in media) (IGF-II protein): (205 ± 42) pg/ml

Cc1cnc(NC(=O)C2=C(O)c3ccccc3S(=O)(=O)N2C)s1 [Meloxicam sodium]
Fold Increase in IGF-II mRNA Expression (IGF-II mRNA): 4.1 fold

CNCC[C@@H](Oc1ccccc1C)c1ccccc1 [Atomoxetine HCl]
Fold Increase in IGF-II mRNA Expression (IGF-II mRNA): 4.8 fold

CS(=O)(=O)c1ccc([C@@H](O)[C@@H](CO)NC(=O)C(Cl)Cl)cc1 [Thiamphenicol]
Fold Increase in IGF-II mRNA Expression (IGF-II mRNA): 3.5 fold

CCC(=O)NCC[C@@H]1CCc2ccc3c(c21)CCO3 [Ramelteon]
Fold Increase in IGF-II mRNA Expression (IGF-II mRNA): 3.4 ± 1.3 fold
Fold Increase in IGF-II Protein Expression (IGF-II protein): 1.5 fold
IGF-II Protein Expression (pg/ml in media) (IGF-II protein): (201 ± 10) pg/ml

COc1ccc([C@@H]2Sc3ccccc3N(CCN(C)C)C(=O)[C@@H]2OC(C)=O)cc1 [Diltiazem HCl]
Fold Increase in IGF-II mRNA Expression (IGF-II mRNA): 4.3 fold
induction of IGF-II expression (in words) (IGF-II mRNA): most active
